BigSolDB 2.1

c1ccc2c(c1)Cc1ccccc1-2
solubility (mole fraction) (in ethanol, 278.98 K): 0.00372
solubility (mole fraction) (in ethanol, 283.99 K): 0.00455
solubility (mole fraction) (in ethanol, 289.01 K): 0.00554
solubility (mole fraction) (in ethanol, 294.08 K): 0.00668
solubility (mole fraction) (in ethanol, 298.35 K): 0.00802
solubility (mole fraction) (in ethanol, 303.36 K): 0.00973
solubility (mole fraction) (in ethanol, 308.77 K): 0.0118
solubility (mole fraction) (in ethanol, 313.17 K): 0.0139
solubility (mole fraction) (in ethanol, 319.27 K): 0.0177
solubility (mole fraction) (in ethanol, 324.95 K): 0.0216
solubility (mole fraction) (in isopropanol, 288.28 K): 0.00221
solubility (mole fraction) (in isopropanol, 293.69 K): 0.00313
solubility (mole fraction) (in isopropanol, 299.5 K): 0.00453
solubility (mole fraction) (in isopropanol, 303.17 K): 0.00565
solubility (mole fraction) (in isopropanol, 309.06 K): 0.00802
solubility (mole fraction) (in isopropanol, 313.78 K): 0.0105
solubility (mole fraction) (in isopropanol, 318.24 K): 0.0135
solubility (mole fraction) (in isopropanol, 323.17 K): 0.0179
solubility (mole fraction) (in isopropanol, 328.25 K): 0.0237
solubility (mole fraction) (in isopropanol, 333.45 K): 0.0314
solubility (mole fraction) (in n-butanol, 284.27 K): 0.0059
solubility (mole fraction) (in n-butanol, 288.82 K): 0.00724
solubility (mole fraction) (in n-butanol, 293.76 K): 0.00906
solubility (mole fraction) (in n-butanol, 298.88 K): 0.0113
solubility (mole fraction) (in n-butanol, 304.06 K): 0.0139
solubility (mole fraction) (in n-butanol, 308.28 K): 0.0168
solubility (mole fraction) (in n-butanol, 313.93 K): 0.0212
solubility (mole fraction) (in n-butanol, 318.16 K): 0.0251
solubility (mole fraction) (in n-butanol, 323.16 K): 0.0304
solubility (mole fraction) (in n-butanol, 328.25 K): 0.037
solubility (mole fraction) (in n-butanol, 333.35 K): 0.0458
solubility (mole fraction) (in n-butanol, 338.35 K): 0.0558
solubility (mole fraction) (in toluene, 283.27 K): 0.0634
solubility (mole fraction) (in toluene, 288.77 K): 0.0819
solubility (mole fraction) (in toluene, 293.72 K): 0.102
solubility (mole fraction) (in toluene, 298.89 K): 0.13
solubility (mole fraction) (in toluene, 303.17 K): 0.154
solubility (mole fraction) (in toluene, 308.81 K): 0.201
solubility (mole fraction) (in toluene, 314.04 K): 0.252
solubility (mole fraction) (in toluene, 319.01 K): 0.308
solubility (mole fraction) (in toluene, 323.28 K): 0.367
